The source of these data is patent US10031129B2, “G-protein coupled receptor polypeptides involved in sensory transduction” (The Regents of the University of California, priority 1998, dated 2018).

In assay [1] the target is T1, mammalian γ-opiod receptor (Homo sapiens, UniProt P35372).
T1 construct: expressed in transfected cells; host or cells: HEK-293 line expressing SV40 T-antigen; CMV-γ-opiod and TK-Gα15 constructs
As to the kind of experiment: ligand-induced changes in [Ca2+]i in control cells expressing γ-opiod/Gα15. Particulars: HEK-293 control cells; dependent on Gα15; rapid onset. Format: cell-based. The source says:
(§1) To determine the ligand selectivity of GPCR-B4, expression in heterologous cells was used. One issue for GPCR expression in heterologous cells is determining how to couple the GPCR to a G-protein and an appropriate signaling pathway. In this example, the G-protein subunit Gα15 was used, which promiscuously couples a wide range of GPCRs to the phospholipase C-mediated signaling pathway (Offermans & Simon, J. Biol. Chem. 270:15175-15180 (1995)). Consequently, receptor activity can be effectively measured by recording ligand-induced changes in [Ca^2+]i using fluorescent Ca^2+-indicator dyes and fluorometric imaging.
(§2) To insure expression of GPCR-B4 in the plasma membrane, a variety of cell lines and expression vectors were tested. […] An HEK-293 line expressing SV40 T-antigen was co-transfected with a TK-Gα15, CMV-γ-opiod and a pEAK-10 episomal vector (Edge Biosystems) containing a EF1a-[B4-GPCR]construct. Transfection efficiencies were determined using CMV-GFP constructs.

The next assay concerns the target T2, GPCR-B4 (Rattus norvegicus, UniProt Q9Z0R7).
T2 construct: expressed in transfected cells; host or cells: HEK-293 line expressing SV40 T-antigen; pEAK-10 episomal vector (Edge Biosystems) with EF1a-[B4-GPCR] construct; TK-Gα15
T2 sequence (Q9Z0R7 20-843): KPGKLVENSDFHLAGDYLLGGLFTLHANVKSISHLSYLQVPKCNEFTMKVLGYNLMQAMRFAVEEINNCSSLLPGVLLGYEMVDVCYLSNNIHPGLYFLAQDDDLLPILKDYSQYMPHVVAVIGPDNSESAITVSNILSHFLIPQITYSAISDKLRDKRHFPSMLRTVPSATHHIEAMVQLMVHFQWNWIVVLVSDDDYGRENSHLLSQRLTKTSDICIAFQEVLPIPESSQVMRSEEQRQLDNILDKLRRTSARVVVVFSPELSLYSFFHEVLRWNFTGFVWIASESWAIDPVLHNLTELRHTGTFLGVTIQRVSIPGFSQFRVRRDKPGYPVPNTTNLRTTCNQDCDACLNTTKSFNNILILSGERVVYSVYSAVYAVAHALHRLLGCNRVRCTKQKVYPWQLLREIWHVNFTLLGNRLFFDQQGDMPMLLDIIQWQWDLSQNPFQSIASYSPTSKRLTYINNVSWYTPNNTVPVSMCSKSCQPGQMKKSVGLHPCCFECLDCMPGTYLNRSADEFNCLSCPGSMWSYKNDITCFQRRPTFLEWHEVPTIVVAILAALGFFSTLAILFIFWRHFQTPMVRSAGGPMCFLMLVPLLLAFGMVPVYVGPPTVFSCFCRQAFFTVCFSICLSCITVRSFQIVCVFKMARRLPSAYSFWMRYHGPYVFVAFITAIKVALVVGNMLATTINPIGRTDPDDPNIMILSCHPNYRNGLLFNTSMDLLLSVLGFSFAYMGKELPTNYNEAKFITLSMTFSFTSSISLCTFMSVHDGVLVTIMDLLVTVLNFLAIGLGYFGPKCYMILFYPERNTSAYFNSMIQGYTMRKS
Briefly: ligand-induced changes in [Ca2+]i in HEK-293 cells expressing B4/Gα15 (fluorescent Ca2+-indicator dyes, fluorometric imaging). It is filed as cell-based. Particulars: HEK-293 line expressing SV40 T-antigen; B4 receptor dependent.
Source text: as §1, §2

T1 sequence (P35372 whole entry): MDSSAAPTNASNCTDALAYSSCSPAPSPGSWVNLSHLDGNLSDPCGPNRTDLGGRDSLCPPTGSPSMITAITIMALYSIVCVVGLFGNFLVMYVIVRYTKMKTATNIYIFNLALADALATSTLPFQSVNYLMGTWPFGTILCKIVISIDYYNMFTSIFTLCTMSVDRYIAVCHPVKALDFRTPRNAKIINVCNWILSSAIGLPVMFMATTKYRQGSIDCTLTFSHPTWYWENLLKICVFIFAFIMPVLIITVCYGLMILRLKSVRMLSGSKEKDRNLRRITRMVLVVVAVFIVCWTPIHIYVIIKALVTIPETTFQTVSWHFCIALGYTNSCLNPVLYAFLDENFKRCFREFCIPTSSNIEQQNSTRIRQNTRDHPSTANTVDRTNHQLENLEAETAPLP

`C[C@@H](NC(=O)[C@@H](N)Cc1ccc(O)cc1)C(=O)NCC(=O)N(C)[C@@H](Cc1ccccc1)C(=O)NCCO` [DAMGO]: in assay [1], the “response (change in [Ca2+]i) of control cells expressing γ-opiod/Gα15” value was “respond robustly”. For the compound `NC(=S)Nc1ccccc1` [PTC, phenylthiocarbamide], the “response (change in [Ca2+]i) of cells expressing B4/Gα15 or B4/Gα15/γ-opiod” value at GPCR-B4 is on record as “respond”.
